Measured values taken from PubChem BioAssay (NCI).
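Assay format: 96-well plates, 48-hour exposure. Abbreviation: GI50, concentration required for 50% inhibition of growth. TGI is the concentration that stops growth completely.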

How the values were obtained:
Test in all cases: NCI-60 cell line screen, 48 h
[1] = system: UO-31 renal
[2] = system: U251 CNS
[3] = system: OVCAR-4 ovarian
[4] = system: SK-OV-3 ovarian
[5] = system: NCI/ADR-RES ovarian
[6] = system: OVCAR-5 ovarian
[7] = system: NCI-H23 lung
[8] = system: SF-295 CNS
[9] = system: OVCAR-8 ovarian
[10] = system: NCI-H460 lung

Compound | GI50 [1] [µM] | TGI [1] [µM] | GI50 [2] [µM] | TGI [2] [µM] | GI50 [3] [µM] | TGI [3] [µM] | GI50 [4] [µM] | TGI [4] [µM] | GI50 [5] [µM] | TGI [5] [µM] | GI50 [6] [µM] | TGI [6] [µM] | GI50 [7] [µM] | TGI [7] [µM] | GI50 [8] [µM] | TGI [8] [µM] | GI50 [9] [µM] | TGI [9] [µM] | GI50 [10] [µM] | TGI [10] [µM]
COc1ccc(/C=C2/N=C(c3ccccc3)N(c3c(C)n(C)n(-c4ccccc4)c3=O)C2=O)cc1OC | > 100 | > 100 | > 100 | > 100 | > 100 | > 100 | > 100 | > 100 | > 100 | > 100 | > 100 | > 100 | > 100 | > 100 | > 100 | > 100 | > 100 | > 100 | > 100 | > 100
COc1ccc(-c2nc3ccc(-c4nc5ccc(N6CCN(c7ccccc7)CC6)cc5[nH]4)cc3[nH]2)cc1OC | 51.4 | > 100 | 1.2 | 3.02 | 1.52 | 3.04 | 5.34 | 18.6 | > 100 | > 100 | 2.21 | 4.48 | 1.77 | 3.66 | 1.73 | 4.02 | 1.52 | 4.56 | 1.73 | 3.66
COc1c(OC[C@H](O)CN2CCOCC2)ccc2c3n(c(=NC(=O)c4cccnc4C)nc12)CCN3 | 0.263 | > 50 | 2.58 | > 50 | > 50 | > 50 | 0.115 | 2.27 | > 50 | > 50 | 0.171 | > 50 | > 50 | > 50 | 0.541 | 17.2 | > 50 | > 50 | 0.528 | > 50
CNCC#Cc1c(F)ccc2c1/C(=C/c1[nH]ccc1OC)C(=O)N2 | 0.13 | 2.6 | 0.121 | 2.75 | 0.495 | 3.2 | 0.104 | 3.52 | 0.363 | 3.27 | 0.323 | 3.16 | 0.283 | 1.26 | 0.389 | 3.55 | 0.161 | 3.22 | 0.124 | 2.44
CCCC(=O)Nc1cc2c3c(c1)CCCN3CCC2 | – | – | – | > 10 | – | > 10 | – | > 10 | – | > 10 | – | > 10 | – | > 10 | – | > 10 | – | > 10 | – | –
COc1ccc2[nH]cc(C3(c4c[nH]c5ccc(OC)cc45)C(=O)Nc4ccc(F)cc43)c2c1 | 1.51 | 11.9 | 2.58 | 8.83 | 2.76 | 11.6 | 3.59 | 13.5 | 5.76 | 31.1 | 2.61 | 8.93 | 2.43 | 8.06 | 1.79 | 4.85 | 2.75 | 9.67 | 2.3 | 5.17
CO/N=C(\COc1ccc2c(c1)oc(=O)c1cc(OC)ccc12)c1ccc(OC)cc1 | > 100 | > 100 | > 100 | > 100 | 20.5 | > 100 | > 100 | > 100 | > 100 | > 100 | > 100 | > 100 | > 100 | > 100 | > 100 | > 100 | > 100 | > 100 | > 100 | > 100
CCSc1ncnc2c1ncn2C1OC(CO)C(O)C1O (stereo not drawn) | 0.405 | > 100 | 6.39 | > 100 | 9.87 | > 100 | 0.754 | > 100 | 0.432 | > 57.1 | 0.65 | > 100 | 0.434 | > 100 | 0.843 | > 43.1 | 0.296 | 16 | 0.6 | > 100
Cn1cc(C2=C(c3cn(CCCCO)c4ccccc34)C(=O)NC2=O)c2ccccc21 | 6.33 | > 20.1 | 8.55 | > 25 | 13.9 | > 25 | 8.23 | > 25 | 11.2 | > 25 | 13.5 | > 25 | 10.1 | > 25 | 5.9 | > 25 | 8.61 | 24.8 | 8.41 | > 25
Cc1ccc(NC(=O)CC2CC2)cc1-c1ccc(C(=O)NCC2CC2)cc1 | > 25 | > 25 | > 25 | > 25 | > 25 | > 25 | > 25 | > 25 | > 25 | > 25 | > 25 | > 25 | > 25 | > 25 | > 25 | > 25 | > 25 | > 25 | > 25 | > 25
O=C1OCC2=C1C(c1cccc(Br)c1)c1cc3c(cc1N2CCO)CCC3 (stereo not drawn) | 0.0997 | 8.2 | 0.108 | 1.55 | 0.168 | 16 | 0.102 | 1.58 | 0.025 | 0.234 | 0.322 | 10 | 0.136 | 8.42 | 0.034 | 8.36 | 0.14 | 0.852 | 0.101 | 5.19
COc1cc(-n2cc(-c3ccc(F)cc3)[nH]c2=O)cc(OC)c1OC | > 100 | > 100 | 71.6 | > 100 | > 100 | > 100 | > 100 | > 100 | > 100 | > 100 | > 100 | > 100 | > 100 | > 100 | > 100 | > 100 | > 100 | > 100 | > 100 | > 100
O=C(c1ccccc1Br)C(F)(F)F | – | > 100 | – | > 100 | – | > 100 | – | > 100 | – | > 100 | – | > 100 | – | > 100 | – | > 100 | – | > 100 | – | > 100
